These results are taken from patent US9283224B2, “Substituted pyrimidinyl-pyrroles active as kinase inhibitors” (NERVIANO MEDICAL SCIENCES S.R.L., priority 2012, dated 2016).

Read-outs that look alike come from different tables or passages of the source.

The test system of experiment [1] is JAK2 dependent human megakaryoblastic leukemia cell line SET-2. Description: Cell proliferation assay (CellTiter-Glo, 72 hours), SET-2. The format is cell-based. The conditions noted are these: for IC50: Homo sapiens, read-out: SET-2 IC50; for Ratio K-562 (IC50)/SET-2 (IC50): selectivity for JAK2 dependent SET-2 vs JAK2 independent K-562 cell line. On the procedure: (§1) the JAK2 dependent human megakaryoblastic leukemia cell line SET-2 (DSMZ, Braunschweig GERMANY), and JAK2 independent human chronic myelogenous leukaemia cell line K562 (ECACC, Wiltshire, UK) were cultured in RPMI-1640 medium-Glutamax (Gibco BRL, Gaithesburg, Md., USA), supplemented with 10% fetal bovine serum (FBS) at 37° C. and 5% CO2.
(§2) Approximately 5×10^3 cells were plated into 384 microtiter plate wells in 50 μL of growth media with different concentrations of inhibitors. The cells were incubated at 37° C. and 5% CO2 for 72 hours, than the plates were processed using CellTiter-Glo assay (Promega, Madison, Wis., USA) following the manufacturer's instruction. Briefly 25 μL/well reagent solution are added to each wells and after 5 minutes shacking micro-plates are read by Envision luminometer (PerkinElmer, Waltham, Mass., USA).
(§3) Data are analyzed by Symix Assay Explorer software (Symix Technologies Inc.) that provides sigmoidal fitting algorithm of the 8 points dilutions curves for […] determination.
On the technique in general: Cellular ATP, detected with luciferase, serves as a proxy for viable cell number.

The subject of experiment [2] is JAK2 independent human chronic myelogenous leukaemia cell line K562. Description: Cell proliferation assay (CellTiter-Glo, 72 hours), K562. It counts as cell-based. Conditions: K562 cells, read-out: K-562 IC50. On the procedure:
as §1, §2, §3

For a further experiment, the target named is T1, JAK2 kinase domain (Homo sapiens, UniProt O60674).
T1 construct: commercially available JAK2 kinase domain (Invitrogen, Eugene, Oreg.); purchased Invitrogen, Eugene, Oreg
In words: Biochemical assay for inhibitors of JAK2 kinase activity (33P-γ-ATP, dowex resin). Conditions: 1 nM enzyme, 60 μM ATP, 60 minutes at room temperature. On the procedure: Specific JAK2, JAK1 or JAK3 peptide substrates are trans-phosphorylated by JAK kinases in the presence of ATP traced with 33P-γ-ATP. At the end of the phosphorylation reaction, the unreacted ATP, cold and radioactive, is captured by an excess of dowex ion exchange resin that eventually settles by gravity to the bottom of the reaction plate. The supernatant is subsequently withdrawn and transferred into a counting plate that is then evaluated by β-counting.
500 g of wet resin (SIGMA, custom prepared resin DOWEX 1×8 200-400 mesh, 2.5 Kg) is weighed out and diluted 2 to 1 in 150 mM sodium formate, pH 3.00. The resin is allowed to settle overnight and then the supernatant is discarded. After three washes as above over a couple of days, the resin is allowed to settle and two volumes (with respect to the resin volume) of 150 mM sodium formate buffer are added.
Kinase buffer was composed of 50 mM HEPES pH 7.5 containing 10 mM MgCl2, 2.5 mM DTT, 10 μM Na3VO4 and 0.2 mg/mL BSA.
The peptidic substrate was purchased from American Peptide Company (Sunnyvale, Calif.).
An automated station for serial dilutions (Biomek FX, Beckman) is used for producing 1:3 dilutions in 100% DMSO, from line A1 to A10, and for all the compounds in the column.
At the start of the run, the robot aspirates 5 μL of ATP mix, makes an air gap inside the tips (3 μl) and aspirates 5 μL of JAK2 mix. The following dispensation into the plates plus 3 cycles of mixing, done by the robot itself, starts the kinase reaction. At this point, the correct concentrations are restored for all the reagents. The robot incubates the plates for 60 minutes at room temperature, and then stops the reaction by pipetting 60 μL of dowex resin suspension into the reaction mix. In order to avoid tip clogging, wide bore tips are used to dispense the resin suspension. Three cycles of mixing are done immediately after the addition of the resin. Another mixing cycle is performed after all the plates are stopped, this time using normal tips: the plates are then allowed to rest for about one hour in order to allow resin sedimentation. At this point, 27 μL of the supernatant are transferred into 384-Optiplates (Perkin-Elmer), with 50 μL of Microscint 40 (Perkin-Elmer); after 5 min of orbital shaking the plates are read on a Perkin-Elmer Top Count radioactivity counter.
Data are analyzed by an internally customized version of the SW package “Assay Explorer” that provides sigmoidal fitting of the ten-dilutions curves for IC50 determination in the secondary assays/hit confirmation routines.

As usually defined, the IC50 is the concentration that gives 50% inhibition.

T1 sequence (O60674 849-1124 limits assumed): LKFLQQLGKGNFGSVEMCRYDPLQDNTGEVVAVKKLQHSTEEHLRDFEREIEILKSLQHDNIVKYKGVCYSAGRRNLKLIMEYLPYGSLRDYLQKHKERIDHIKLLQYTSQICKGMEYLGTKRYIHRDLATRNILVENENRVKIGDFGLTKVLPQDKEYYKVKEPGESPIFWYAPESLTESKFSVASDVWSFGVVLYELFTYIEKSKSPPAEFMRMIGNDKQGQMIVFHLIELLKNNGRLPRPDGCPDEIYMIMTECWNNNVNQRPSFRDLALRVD

For `CNC(=O)c1cc(-c2ccnc(N)n2)[nH]c1-c1cc(C(F)(F)F)ccc1Cl` [Cmpd. 39, 5-(2-Aminopyrimidin-4-yl)-2-[2-chloro-5-(trifluoromethyl)phenyl]-N-methyl-1H-pyrrole-3-carboxamide], the IC50 in experiment [1] (SET-2 cells, 72 hours) is 630 nM; in experiment [2], over 10000 nM. In addition, the “Ratio K-562 (IC50)/SET-2 (IC50)” value in experiment [1] was over 16.

As for `NC(=O)c1cc(-c2ccnc(N)n2)[nH]c1-c1cc(Cl)ccc1Cl` [Cmpd. 2, 5-(2-Aminopyrimidin-4-yl)-2-(2,5-dichlorophenyl)-1H-pyrrole-3-carboxamide], the IC50 turned out to be 12 nM against JAK2 kinase domain; 700 nM in experiment [1] (SET-2 cells, 72 hours); 6860 nM in experiment [2]. The “Ratio K-562 (IC50)/SET-2 (IC50)” value in experiment [1] is 9.8.

Take `CCc1ccc(Cl)cc1-c1[nH]c(-c2ccnc(N)n2)cc1C(N)=O` [Cmpd. 5, 5-(2-Aminopyrimidin-4-yl)-2-(5-chloro-2-ethylphenyl)-1H-pyrrole-3-carboxamide]: the IC50 in experiment [1] (SET-2, 72 h) stood at 210 nM; in experiment [2], 5320 nM.

On to `CCNC(=O)c1cc(-c2ccnc(N)n2)[nH]c1-c1cc(Cl)ccc1CC` [Cmpd. 36, 5-(2-Aminopyrimidin-4-yl)-2-(5-chloro-2-ethylphenyl)-N-ethyl-1H-pyrrole-3-carboxamide], for which the IC50 against JAK2 kinase domain was 13 nM; in experiment [1] (SET-2 cells, 72 hours), 610 nM; in experiment [2], over 10000 nM. Besides, the “Ratio K-562 (IC50)/SET-2 (IC50)” value in experiment [1] is given as over 16.

As to `Cc1ccc(Cl)cc1-c1[nH]c(-c2ccnc(N)n2)cc1C(N)=O` [Ref. cmpd. (F25), 5-(2-amino-pyrimidin-4-yl)-2-(5-chloro-2-methyl-phenyl)-1H-pyrrole-3-carboxamide, reference compound], the IC50 in experiment [1] (SET-2, 72 h) came out at 430 nM; in experiment [2], 2000 nM.

In the case of `CCc1ccc(C(F)(F)F)cc1-c1[nH]c(-c2ccnc(N)n2)cc1C(N)=O` [Cmpd. 16, 5-(2-Aminopyrimidin-4-yl)-2-[2-ethyl-5-(trifluoromethyl)phenyl]-1H-pyrrole-3-carboxamide], the IC50 against JAK2 kinase domain is 2 nM; in experiment [1] (SET-2 cells, 72 hours) it was 390 nM; in experiment [2] it was 3680 nM. In addition, in experiment [1], the “Ratio K-562 (IC50)/SET-2 (IC50)” value was 9.43.

`NC(=O)c1cc(-c2ccnc(N)n2)[nH]c1-c1cc(C(F)(F)F)ccc1Cl` [Cmpd. 1, 5-(2-Aminopyrimidin-4-yl)-2-[2-chloro-5-(trifluoromethyl)phenyl]-1H-pyrrole-3-carboxamide]: the IC50 against JAK2 kinase domain turned out to be 8 nM; in experiment [1] (SET-2 cells, 72 hours), 570 nM; in experiment [2] it was 7500 nM. In addition, in experiment [1], the “Ratio K-562 (IC50)/SET-2 (IC50)” value was found to be 13.

Consider `CCc1ccc(Cl)cc1-c1[nH]c(-c2ccnc(N)n2)cc1C(=O)NC` [Cmpd. 35, 5-(2-Aminopyrimidin-4-yl)-2-(5-chloro-2-ethylphenyl)-N-methyl-1H-pyrrole-3-carboxamide], for which the IC50 against JAK2 kinase domain was 9 nM; in experiment [1] (SET-2 cells, 72 hours), 490 nM; in experiment [2], over 10000 nM. Also, the “Ratio K-562 (IC50)/SET-2 (IC50)” value in experiment [1] is over 20.

With `CCc1ccc(C(F)(F)F)cc1-c1[nH]c(-c2ccnc(N)n2)cc1C(=O)NC` [Cmpd. 51, 5-(2-Aminopyrimidin-4-yl)-2-[2-ethyl-5-(trifluoromethyl)phenyl]-N-methyl-1H-pyrrole-3-carboxamide], the IC50 against JAK2 kinase domain is 2 nM; in experiment [1] (SET-2 cells, 72 hours), 310 nM; in experiment [2], over 10000 nM. Moreover, in experiment [1], the “Ratio K-562 (IC50)/SET-2 (IC50)” value is reported as over 20.

`CNc1nccc(-c2cc(C(N)=O)c(-c3cc(Cl)ccc3C)[nH]2)n1` [Cmpd. 42, 2-(5-Chloro-2-methylphenyl)-5-[2-(methylamino)pyrimidin-4-yl]-1H-pyrrole-3-carboxamide]: in experiment [2], the IC50 was over 10000 nM.
